ChEMBL document CHEMBL1142580, “Malettinins B-D: new polyketide metabolites from an unidentified fungal colonist of Hypoxylon Stromata (NRRL 29110)” (2005)

What was measured:
Type in all cases: functional
Settings in all cases: read-out: IZ
Candida albicans = experiment: Antimicrobial activity against Candida albicans ATCC 90029 at 250 ug/disk by standard disk assay
Staphylococcus aureus = experiment: Antimicrobial activity against Staphylococcus aureus ATCC 29213 at 200 ug/disk by standard disk assay
Bacillus subtilis = experiment: Antimicrobial activity against Bacillus subtilis ATCC 6051 at 200 ug/disk by standard disk assay

Row | Compound | zone of inhibition at 250 µg/disc (Candida albicans) [mm] | zone of inhibition at 200 µg/disc (Staphylococcus aureus) [mm] | zone of inhibition at 200 µg/disc (Bacillus subtilis) [mm]
1 | Cc1cc(=O)c(O)cc2c1C[C@@H](C)[C@]1(OC[C@@H](C)[C@H]1O)O2 [MALETTININ B] | 19 | 24 | 26
2 | Cc1cc(=O)c(O)cc2c1C[C@@H](C)[C@@]1(OC[C@@H](C)[C@H]1O)O2 [MALETTININ C] | 13 | 12 | 15
